Experimental data: ChEMBL document CHEMBL5465560, “Selectivity Literature for EUbOPEN Chemogenomic Library” (2024)
One block for each molecule: values may come before it.

Assays:
[1] = target: T1, Serine/threonine-protein kinase Nek1 (Homo sapiens) (UniProt Q96PY6); experiment: Selectivity interaction (KinomeScan (DiscoverX)) EUB0001049a NEK1; conditions: at 1 µM
T1 sequence (whole entry): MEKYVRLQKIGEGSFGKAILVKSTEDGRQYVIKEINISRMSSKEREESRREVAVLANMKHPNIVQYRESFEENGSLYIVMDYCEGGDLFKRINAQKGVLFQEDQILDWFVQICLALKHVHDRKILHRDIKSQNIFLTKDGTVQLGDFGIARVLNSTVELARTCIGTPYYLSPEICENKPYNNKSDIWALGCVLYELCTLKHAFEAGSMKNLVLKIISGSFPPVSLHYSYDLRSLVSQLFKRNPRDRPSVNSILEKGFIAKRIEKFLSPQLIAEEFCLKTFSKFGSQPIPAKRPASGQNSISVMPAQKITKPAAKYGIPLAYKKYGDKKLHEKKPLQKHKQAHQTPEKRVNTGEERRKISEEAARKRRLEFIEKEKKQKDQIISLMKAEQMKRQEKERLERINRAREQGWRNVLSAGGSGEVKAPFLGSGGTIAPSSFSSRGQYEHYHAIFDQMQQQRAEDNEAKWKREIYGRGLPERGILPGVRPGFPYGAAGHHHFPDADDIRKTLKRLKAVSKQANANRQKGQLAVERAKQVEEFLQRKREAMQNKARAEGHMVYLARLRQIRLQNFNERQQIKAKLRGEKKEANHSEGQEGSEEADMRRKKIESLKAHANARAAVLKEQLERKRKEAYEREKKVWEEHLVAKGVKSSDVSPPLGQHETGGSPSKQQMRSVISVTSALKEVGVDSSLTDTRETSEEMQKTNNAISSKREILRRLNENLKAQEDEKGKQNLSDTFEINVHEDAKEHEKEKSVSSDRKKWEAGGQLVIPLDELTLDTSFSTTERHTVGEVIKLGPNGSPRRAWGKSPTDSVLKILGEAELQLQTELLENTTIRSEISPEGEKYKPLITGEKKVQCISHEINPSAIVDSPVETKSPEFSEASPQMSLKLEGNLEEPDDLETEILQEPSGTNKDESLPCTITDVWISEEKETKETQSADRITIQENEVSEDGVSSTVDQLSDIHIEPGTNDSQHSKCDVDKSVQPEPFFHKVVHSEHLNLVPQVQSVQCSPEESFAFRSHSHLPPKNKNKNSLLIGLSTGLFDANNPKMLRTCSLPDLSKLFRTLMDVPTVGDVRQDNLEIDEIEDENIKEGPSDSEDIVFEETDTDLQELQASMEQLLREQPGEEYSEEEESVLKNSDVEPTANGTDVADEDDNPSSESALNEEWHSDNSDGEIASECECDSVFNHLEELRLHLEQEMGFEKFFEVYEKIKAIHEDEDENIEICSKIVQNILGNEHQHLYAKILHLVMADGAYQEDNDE

[2] = target: Mu-type opioid receptor (Homo sapiens, UniProt P35372); experiment: Selectivity interaction (Panel of kinases, GPCRs, ion channels and transporters (enzymatic assay)) EUB0000266bCl OPRM1
Chain of Mu-type opioid receptor (P35372 whole entry): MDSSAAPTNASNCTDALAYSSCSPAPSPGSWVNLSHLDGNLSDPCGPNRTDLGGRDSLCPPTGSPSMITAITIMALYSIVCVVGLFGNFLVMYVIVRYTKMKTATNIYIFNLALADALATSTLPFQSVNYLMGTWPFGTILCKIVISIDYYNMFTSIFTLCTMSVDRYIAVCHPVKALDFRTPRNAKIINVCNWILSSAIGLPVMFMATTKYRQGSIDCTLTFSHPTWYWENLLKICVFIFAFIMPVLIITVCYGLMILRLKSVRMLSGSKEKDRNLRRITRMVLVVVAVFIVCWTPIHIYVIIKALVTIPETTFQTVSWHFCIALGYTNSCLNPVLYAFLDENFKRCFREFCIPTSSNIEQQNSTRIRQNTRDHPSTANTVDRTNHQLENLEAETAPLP

[3] = target: Ribosomal protein S6 kinase alpha-5 (Homo sapiens) (UniProt O75582); experiment: Selectivity interaction (Ambit KINOMEscan and KiNATiv profiling in Jurkat cells) EUB0000090b RPS6KA5; format: cell-based; conditions: at 1 µM
Chain of Ribosomal protein S6 kinase alpha-5 (Homo sapiens) (O75582 whole entry, looked up): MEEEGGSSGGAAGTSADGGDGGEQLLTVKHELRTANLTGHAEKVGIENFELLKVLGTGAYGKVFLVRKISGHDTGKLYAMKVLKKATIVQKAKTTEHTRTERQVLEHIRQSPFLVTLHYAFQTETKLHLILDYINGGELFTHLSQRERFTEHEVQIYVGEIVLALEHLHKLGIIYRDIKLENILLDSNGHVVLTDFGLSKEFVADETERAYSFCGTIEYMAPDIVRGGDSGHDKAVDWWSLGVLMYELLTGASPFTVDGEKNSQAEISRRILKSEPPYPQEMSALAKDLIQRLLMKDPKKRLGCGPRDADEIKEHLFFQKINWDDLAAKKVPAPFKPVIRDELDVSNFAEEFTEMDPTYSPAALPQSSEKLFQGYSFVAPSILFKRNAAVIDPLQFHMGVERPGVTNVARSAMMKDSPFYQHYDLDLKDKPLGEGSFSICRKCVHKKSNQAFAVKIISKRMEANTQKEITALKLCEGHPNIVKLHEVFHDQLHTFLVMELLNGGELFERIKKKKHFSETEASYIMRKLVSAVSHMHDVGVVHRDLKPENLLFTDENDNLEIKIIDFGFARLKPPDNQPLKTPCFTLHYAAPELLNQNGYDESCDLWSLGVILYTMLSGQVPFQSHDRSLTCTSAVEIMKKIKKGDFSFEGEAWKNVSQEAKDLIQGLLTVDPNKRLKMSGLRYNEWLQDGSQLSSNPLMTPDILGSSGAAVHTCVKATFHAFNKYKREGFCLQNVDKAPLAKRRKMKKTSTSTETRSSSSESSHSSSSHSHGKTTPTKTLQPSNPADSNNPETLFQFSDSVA

[4] = target: T2, Tyrosine-protein kinase ZAP-70 (Homo sapiens) (UniProt P43403); experiment: Selectivity interaction (Ambit KINOMEscan and KiNATiv profiling in Jurkat cells) EUB0000090b ZAP70; format: cell-based; conditions: at 1 µM
T2 sequence (whole entry): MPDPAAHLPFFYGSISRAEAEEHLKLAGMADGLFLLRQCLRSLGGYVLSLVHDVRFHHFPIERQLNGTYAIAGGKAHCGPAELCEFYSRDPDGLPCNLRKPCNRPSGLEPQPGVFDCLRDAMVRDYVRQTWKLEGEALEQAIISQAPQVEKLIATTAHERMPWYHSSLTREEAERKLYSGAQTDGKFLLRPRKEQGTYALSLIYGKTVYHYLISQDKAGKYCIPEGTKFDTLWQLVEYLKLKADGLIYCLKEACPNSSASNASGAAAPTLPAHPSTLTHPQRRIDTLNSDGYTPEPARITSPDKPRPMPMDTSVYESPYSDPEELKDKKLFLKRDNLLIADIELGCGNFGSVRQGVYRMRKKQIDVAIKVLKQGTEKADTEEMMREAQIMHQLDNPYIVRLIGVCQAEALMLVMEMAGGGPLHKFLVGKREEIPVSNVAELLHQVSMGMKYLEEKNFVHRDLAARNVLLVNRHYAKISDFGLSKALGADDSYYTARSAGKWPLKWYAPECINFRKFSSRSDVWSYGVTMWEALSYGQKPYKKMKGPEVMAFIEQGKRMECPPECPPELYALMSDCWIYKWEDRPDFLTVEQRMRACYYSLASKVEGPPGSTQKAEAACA

[5] = target: T3, Prostaglandin G/H synthase 2 (Homo sapiens) (UniProt P35354); experiment: Selectivity interaction (Panel of kinases, GPCRs, ion channels and transporters (enzymatic assay)) EUB0000223bCl PTGS2
T3 sequence (whole entry): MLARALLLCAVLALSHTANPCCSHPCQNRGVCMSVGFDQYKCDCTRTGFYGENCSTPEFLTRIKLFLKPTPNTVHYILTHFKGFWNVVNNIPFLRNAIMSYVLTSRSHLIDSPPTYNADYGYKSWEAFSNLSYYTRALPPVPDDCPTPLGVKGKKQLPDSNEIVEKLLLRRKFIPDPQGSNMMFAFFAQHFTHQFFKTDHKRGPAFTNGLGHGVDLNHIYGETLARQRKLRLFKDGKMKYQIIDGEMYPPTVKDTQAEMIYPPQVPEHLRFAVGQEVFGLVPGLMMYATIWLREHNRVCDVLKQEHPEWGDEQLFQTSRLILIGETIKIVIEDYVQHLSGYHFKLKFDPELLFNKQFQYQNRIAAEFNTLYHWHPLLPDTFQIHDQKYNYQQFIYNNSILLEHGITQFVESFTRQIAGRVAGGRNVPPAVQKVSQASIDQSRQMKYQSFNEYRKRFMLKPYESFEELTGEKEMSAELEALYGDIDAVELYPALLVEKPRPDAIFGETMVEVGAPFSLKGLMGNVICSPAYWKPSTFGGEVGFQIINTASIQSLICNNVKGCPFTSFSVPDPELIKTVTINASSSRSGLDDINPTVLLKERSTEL

SMILES: COc1cc(Nc2nc(C)cc(-c3cnn4nc(OC)ccc34)n2)cc(C(F)(F)F)c1
- % of control [1]: 100%

- pXC50 [2]: < 4 M
SMILES: CCn1c(-c2nc3cc(C(=O)N4CCCC(N)C4)ccc3n2C)cc2ccccc21 (stereo not given)

SMILES: CN(C)C/C=C/C(=O)Nc1ccc(C(=O)N2CCCC(Nc3ncc(Cl)c(-c4c[nH]c5ccccc45)n3)C2)cc1 (stereo not given)
- % of control [3]: 86%
- % of control [4]: 86%

SMILES: COc1cc(C(=O)N2CC[C@@H](O)[C@@H](N)C2)cc2nc(-c3cc4ccccc4n3CC3CC3)n(C)c12
- pXC50 [5]: < 4 M
